US7388028B2, “Methoxypolyethylene glycol thioester chelate and uses thereof” (priority 2006, dated 2008)

Assays:
[1] = tested on: NMDA retinal damage model; experiment: NMDA retinal damage model, electroretinogram A and B waves; type: in vivo, rats
Procedure: NMDA retinal damage model: Changes in electroretinogram (ERG) A and B waves have been used as indicators of RGC damage. To examine RGC neuroprotection, 2 ul intravitreal injections of 10 mM NMDA, sufficient to change ERG A and B-waves within 2 weeks, were challenged with co-administered intravitreal (2 mM) or topical 100 mM MPDTE, MPSEDE and amifostine in normal rats unilaterally. For topical administration, rats were pretreated for 5 days prior and 3 days post-NMDA administration with the agents at a frequency of 3 times per day with 20 μl agent. Scotopic ERG changes were measured in normal rats. Rats were dark adapted for at least 4 hrs. Eyes were dilated with atropine after which proparacaine and methylcellulose gel were applied topically. Custom made AgCl electrodes (64-1317, Warner Instruments, Hamden, Conn.) were placed on the apex of the cornea. Stimuli consisted of 10-microsec flashes of unattenuated white light generated by Ganzfield bowl photo stimulator (Grass Instruments, PS22, Quincy, Mass.). Data from each eye was recorded separately with a driver amplifier (Grass Instruments, Model 7DAF Polygraph, Quincy, Mass.). Data was acquired digitally via DASYLab (Bedford, N.H.). The contralateral normal eye served as an age matched negative control, e.g. response in a normal, undamaged eye. Differences in amplitude of the A-wave and B-waves between the treated eye and the contralateral eye and between treatment groups were calculated.

[2] = tested on: rat surgical glaucoma model (intraocular pressure); experiment: Topical application of MP compounds, IOP measurements on rat surgical glaucoma model; type: in vivo, rats
Procedure: Rat ocular hypertensive model: Ocular hypertension was induced in 9 male SpragueDawley rats, weighing between 400 to 500 grams. Under general anesthesia with acepromazine maleate (12 mg/Kg) and ketamine (80 mg/Kg), IP, and topical proparacaine (0.5%), dissection of the conjunctiva was made with fine cuts. To reduce the stimulus for revascularization or neovascularization, dissection of the right eye was limited to the area immediately surrounding the vortex veins. Three of four vortex veins were exposed and ligated using 9.0 nylon sutures. Criterion for inclusion into the study was an intraocular pressure (IOP) increase of 5 mm Hg or more when compared to […] baseline IOP. Within 6 weeks, the IOP of all the operated eyes increased at least 5 mm Hg compared to baseline. National Institutes of Health Guidelines and Association for Research in Vision and Opthalmology statement for the Use and Care of Animals were followed in this study.
Intraocular pressure (IOP) Measurements: Prior to initiation of treatment, baseline IOP was obtained in glaucoma rat models. IOP was measured via a specially modified Goldmann applanation tonometer (HAAG-STREIT, Bern, Switzerland) under sedation. Measurements are averages of two consecutive readings and were made at the same time of day and by the same observers.
Topical application of MP compounds for IOP measurements on rat surgical glaucoma model: Rats were treated topically with 20 μl of MP compounds (0.3-100 mM; n=3-6) on the operated eyes. The MP compounds were compared to 10 or 87 mM topical amifostine, a free radical scavenger. MP esterified chelators were diethylenetriaminepentaacetic acid (MPDTE) and MPSEDE.

[3] = Intravitreal agent (2 mM) co-administered with intravitreal 10 mM NMDA
[4] = Topical agent (100 mM, 3 times per day, 5 days prior and 3 days post-NMDA), intravitreal 10 mM NMDA

Molecule	A wave [1, 3]	B wave [1, 3]	A wave [1, 4]	B wave [1, 4]	IOP reduction ([2]; topical 10 mM or 87 mM)	IOP reduction ([2]; single topical dose of 10-100 mM, operated eye, FIG. 5-7)	reduction of NMDA damage ([1]; both intravitreal and topical administration (Table 1))	reduction of NMDA damage ([1]; co-administration with NMDA, at the dose tested)	IOP reduction ([2]; administered alone or together, FIG. 10, not as great as with MPDTE)
CN[C@H](CC(=O)O)C(=O)O [NMDA, N-methyl-D-aspartate, reference compound]	51.2 % Baseline	68.4 % Baseline	51.2 % Baseline	68.4 % Baseline	–	–	–	–	–
NCCCNCCSP(=O)(O)O [amifostine, S-2-[3-aminopropylamino] ethylphosphorothioate]	–	–	–	–	No reduction in IOP	–	–	–	–
methoxypolyethlene glycol thioester of ethylenediaminetetraacetic acid methyl triester [MPSEDE]	76.2 % Baseline	69.6 % Baseline	95.9 % Baseline	93.7 % Baseline	–	significantly reduced IOP	significantly reduced NMDA damage	trend to reduce NMDA damage, but this was not significant	–
polyethylene glycol monomethyl ether [MP]	–	–	–	–	–	–	–	–	reduction in IOP
